Literature values in patent US11925179B2, “Glyphosate formulations containing amidoalkylamine surfactants” (Monsanto Technology LLC, priority 2008, dated 2024).

Conditions: glyphosate in its acid form, 25° C.

For O=C(O)CNCP(=O)(O)O [glyphosate, N-phosphonomethylglycine], the solubility in water is given as 1.16 % by weight.
